Laboratory results from patent US12258327B2, “5-membered heteroaryl-containing aminopyridine compounds as EGFR inhibitors” (YUHAN CORPORATION, priority 2021, dated 2025).
Like-named read-outs stand apart in the source and are kept apart here.

Experiments:
EGFR del19/T790M/C797S = EGFR del19/T790M/C797S (Homo sapiens, UniProt P00533, C797S/DEL746-750/T790M); experiment: Biochemical EGFR kinase assay (Lance Ultra TR-FRET), triple mutant del19/T790M/C797S
Procedure, shortened: (§1)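 Kinase activity is measured by TR-FRET phosphopeptide detection. Compounds span 0.003 μM to 10 μM; the 1 h reaction at room temperature is quenched with EDTA, then labelled antibody (2 nM) is incubated 60 min before reading.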

EGFR L858R/T790M/C797S = EGFR L858R/T790M/C797S (Homo sapiens, UniProt P00533, C797S/L858R/T790M); experiment: Biochemical EGFR kinase assay (Lance Ultra TR-FRET), triple mutant L858R/T790M/C797S
Chain of EGFR L858R/T790M/C797S (P00533 25-1210 T790M/C797S/L858R): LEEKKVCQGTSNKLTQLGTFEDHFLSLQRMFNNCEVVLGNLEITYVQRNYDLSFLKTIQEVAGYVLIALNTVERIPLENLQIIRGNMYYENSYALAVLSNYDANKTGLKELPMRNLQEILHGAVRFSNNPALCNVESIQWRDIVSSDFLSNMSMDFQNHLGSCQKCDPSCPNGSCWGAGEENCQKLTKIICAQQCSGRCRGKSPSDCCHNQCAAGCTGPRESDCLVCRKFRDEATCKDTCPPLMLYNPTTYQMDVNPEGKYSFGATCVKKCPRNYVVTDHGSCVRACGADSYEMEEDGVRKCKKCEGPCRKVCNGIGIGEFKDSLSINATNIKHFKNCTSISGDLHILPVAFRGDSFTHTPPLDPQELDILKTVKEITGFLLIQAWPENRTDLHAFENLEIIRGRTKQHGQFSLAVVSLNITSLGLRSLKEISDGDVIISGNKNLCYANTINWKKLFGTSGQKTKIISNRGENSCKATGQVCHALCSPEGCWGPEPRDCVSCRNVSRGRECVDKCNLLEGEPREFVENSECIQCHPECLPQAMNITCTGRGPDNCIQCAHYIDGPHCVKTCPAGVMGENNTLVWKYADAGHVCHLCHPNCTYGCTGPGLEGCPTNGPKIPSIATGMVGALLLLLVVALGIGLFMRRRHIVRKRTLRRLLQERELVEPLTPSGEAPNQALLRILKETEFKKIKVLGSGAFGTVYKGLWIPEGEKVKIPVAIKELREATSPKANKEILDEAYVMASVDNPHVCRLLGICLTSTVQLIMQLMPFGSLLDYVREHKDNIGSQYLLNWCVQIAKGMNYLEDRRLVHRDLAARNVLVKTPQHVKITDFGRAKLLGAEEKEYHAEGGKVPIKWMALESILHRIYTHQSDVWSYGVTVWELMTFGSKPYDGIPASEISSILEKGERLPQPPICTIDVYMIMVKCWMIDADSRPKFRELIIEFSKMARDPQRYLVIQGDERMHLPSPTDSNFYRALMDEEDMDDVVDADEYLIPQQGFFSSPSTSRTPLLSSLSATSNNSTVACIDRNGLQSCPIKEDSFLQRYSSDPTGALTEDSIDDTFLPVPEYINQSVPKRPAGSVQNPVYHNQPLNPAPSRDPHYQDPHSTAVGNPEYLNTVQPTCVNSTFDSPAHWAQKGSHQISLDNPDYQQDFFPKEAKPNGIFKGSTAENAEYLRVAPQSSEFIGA
Procedure, shortened: as §1

EGFR del19/C797S = EGFR del19/C797S (Homo sapiens, UniProt P00533, C797S/DEL746-750); experiment: Biochemical EGFR kinase assay (Lance Ultra TR-FRET), double mutant del19/C797S
Chain of EGFR del19/C797S (P00533 with tags, fused parts or gaps DEL746-750/C797S): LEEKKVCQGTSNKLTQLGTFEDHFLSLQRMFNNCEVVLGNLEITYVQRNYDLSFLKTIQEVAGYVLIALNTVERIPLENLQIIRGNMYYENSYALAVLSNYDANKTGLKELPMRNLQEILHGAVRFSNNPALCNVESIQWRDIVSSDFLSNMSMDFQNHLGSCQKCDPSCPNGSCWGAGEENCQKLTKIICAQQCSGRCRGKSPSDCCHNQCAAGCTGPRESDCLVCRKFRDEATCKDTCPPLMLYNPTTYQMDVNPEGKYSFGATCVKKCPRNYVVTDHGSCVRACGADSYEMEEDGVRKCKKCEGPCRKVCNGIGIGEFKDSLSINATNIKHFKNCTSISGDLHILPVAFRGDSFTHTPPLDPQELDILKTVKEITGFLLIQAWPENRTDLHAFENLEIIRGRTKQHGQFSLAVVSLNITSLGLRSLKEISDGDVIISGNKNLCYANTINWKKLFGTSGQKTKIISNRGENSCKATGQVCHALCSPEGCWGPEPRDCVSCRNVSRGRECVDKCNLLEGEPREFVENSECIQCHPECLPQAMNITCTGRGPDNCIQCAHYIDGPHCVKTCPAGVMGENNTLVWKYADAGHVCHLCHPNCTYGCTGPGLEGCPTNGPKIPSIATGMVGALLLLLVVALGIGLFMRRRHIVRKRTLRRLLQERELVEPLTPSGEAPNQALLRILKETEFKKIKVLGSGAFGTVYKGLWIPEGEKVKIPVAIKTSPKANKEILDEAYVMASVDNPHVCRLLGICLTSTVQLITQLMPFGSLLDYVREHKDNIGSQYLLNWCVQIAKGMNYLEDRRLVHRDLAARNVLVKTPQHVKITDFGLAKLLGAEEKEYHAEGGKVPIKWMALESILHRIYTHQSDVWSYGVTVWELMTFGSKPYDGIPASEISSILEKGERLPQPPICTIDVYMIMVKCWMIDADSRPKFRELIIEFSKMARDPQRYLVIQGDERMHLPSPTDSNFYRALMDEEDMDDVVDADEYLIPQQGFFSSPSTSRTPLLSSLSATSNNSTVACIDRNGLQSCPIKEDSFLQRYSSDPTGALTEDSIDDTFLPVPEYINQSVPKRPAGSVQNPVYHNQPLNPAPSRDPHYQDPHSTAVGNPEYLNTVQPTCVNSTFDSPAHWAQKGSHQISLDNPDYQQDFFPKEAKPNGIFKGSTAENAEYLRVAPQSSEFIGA
Procedure, shortened: as §1

EGFR L858R/C797S = EGFR L858R/C797S (Homo sapiens, UniProt P00533, C797S/L858R); experiment: Biochemical EGFR kinase assay (Lance Ultra TR-FRET), double mutant L858R/C797S
Chain of EGFR L858R/C797S (P00533 25-1210 C797S/L858R): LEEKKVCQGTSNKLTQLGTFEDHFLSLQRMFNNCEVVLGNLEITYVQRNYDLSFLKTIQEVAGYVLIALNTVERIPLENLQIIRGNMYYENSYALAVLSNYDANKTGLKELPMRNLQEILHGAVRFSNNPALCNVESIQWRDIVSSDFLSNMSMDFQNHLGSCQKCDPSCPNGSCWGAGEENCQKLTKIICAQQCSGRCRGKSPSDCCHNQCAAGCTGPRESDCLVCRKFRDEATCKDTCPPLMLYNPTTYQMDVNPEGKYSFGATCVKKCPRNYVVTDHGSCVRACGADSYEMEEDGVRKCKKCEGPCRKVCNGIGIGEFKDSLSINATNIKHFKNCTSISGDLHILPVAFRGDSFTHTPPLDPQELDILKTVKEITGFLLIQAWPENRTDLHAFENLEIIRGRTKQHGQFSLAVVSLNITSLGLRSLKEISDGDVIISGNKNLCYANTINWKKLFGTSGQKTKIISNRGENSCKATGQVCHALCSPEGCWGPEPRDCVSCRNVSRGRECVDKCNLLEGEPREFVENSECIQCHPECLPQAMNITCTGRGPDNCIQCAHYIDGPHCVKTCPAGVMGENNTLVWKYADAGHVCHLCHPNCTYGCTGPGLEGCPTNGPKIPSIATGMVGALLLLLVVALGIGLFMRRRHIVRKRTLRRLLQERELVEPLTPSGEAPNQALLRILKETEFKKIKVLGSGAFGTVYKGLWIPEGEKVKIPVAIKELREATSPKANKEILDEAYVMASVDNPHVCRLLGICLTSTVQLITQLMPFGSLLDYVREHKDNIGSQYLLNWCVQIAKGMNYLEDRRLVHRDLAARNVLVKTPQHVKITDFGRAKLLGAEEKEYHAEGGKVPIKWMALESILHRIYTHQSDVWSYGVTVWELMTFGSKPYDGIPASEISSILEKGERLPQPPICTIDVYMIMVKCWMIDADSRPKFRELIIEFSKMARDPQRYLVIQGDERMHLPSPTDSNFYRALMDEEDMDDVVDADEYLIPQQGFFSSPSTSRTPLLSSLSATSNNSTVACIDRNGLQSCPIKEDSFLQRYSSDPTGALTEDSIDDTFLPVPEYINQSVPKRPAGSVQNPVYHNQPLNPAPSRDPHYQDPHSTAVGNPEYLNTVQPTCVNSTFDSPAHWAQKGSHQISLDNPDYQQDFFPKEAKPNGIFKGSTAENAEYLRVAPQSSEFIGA
Procedure, shortened: as §1

EGFR wildtype (WT) = EGFR wildtype (WT) (Homo sapiens, UniProt P00533); experiment: Biochemical EGFR kinase assay (Lance Ultra TR-FRET), wildtype
Chain of EGFR wildtype (WT) (P00533 25-1210): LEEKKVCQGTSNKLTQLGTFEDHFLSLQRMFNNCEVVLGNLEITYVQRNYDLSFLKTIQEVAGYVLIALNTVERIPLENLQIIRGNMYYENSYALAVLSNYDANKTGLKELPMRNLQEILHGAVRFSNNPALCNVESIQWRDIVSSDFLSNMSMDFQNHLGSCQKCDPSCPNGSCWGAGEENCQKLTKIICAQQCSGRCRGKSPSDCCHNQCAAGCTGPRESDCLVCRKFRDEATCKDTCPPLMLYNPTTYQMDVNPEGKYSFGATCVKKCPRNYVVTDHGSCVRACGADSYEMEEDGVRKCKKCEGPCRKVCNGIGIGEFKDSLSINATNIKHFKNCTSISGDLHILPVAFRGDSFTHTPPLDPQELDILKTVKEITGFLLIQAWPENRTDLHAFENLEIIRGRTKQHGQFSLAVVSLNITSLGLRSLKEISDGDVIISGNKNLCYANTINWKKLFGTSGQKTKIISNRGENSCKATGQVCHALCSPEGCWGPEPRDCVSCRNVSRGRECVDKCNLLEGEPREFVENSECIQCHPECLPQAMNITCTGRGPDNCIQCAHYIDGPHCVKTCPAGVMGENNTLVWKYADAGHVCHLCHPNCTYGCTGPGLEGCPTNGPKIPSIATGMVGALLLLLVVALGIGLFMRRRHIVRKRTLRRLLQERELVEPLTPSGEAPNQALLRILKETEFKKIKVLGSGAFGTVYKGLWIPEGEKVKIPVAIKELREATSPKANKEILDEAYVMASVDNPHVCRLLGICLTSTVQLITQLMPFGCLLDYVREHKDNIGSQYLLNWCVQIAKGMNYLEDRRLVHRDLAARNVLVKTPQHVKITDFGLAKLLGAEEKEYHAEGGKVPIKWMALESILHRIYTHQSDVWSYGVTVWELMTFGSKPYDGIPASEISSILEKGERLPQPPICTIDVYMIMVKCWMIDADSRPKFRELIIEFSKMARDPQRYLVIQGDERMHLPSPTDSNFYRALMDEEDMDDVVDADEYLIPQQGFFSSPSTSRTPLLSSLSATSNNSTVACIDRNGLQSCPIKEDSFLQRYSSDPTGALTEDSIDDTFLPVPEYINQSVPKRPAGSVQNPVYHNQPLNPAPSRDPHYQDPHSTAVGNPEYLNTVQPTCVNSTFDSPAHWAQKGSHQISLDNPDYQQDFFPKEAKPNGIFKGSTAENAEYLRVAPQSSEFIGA
Procedure, shortened: as §1

[1] = IC50 del19/T790M/C797S (nM) 100 μM ATP, 100 μM ATP
[2] = Km ATP, read-out: IC50 del19/T790M/C797S (nM) Km ATP
[3] = IC50 L858R/T790M/C797S (nM) 100 μM ATP, 100 μM ATP
[4] = Km ATP, read-out: IC50 L858R/T790M/C797S (nM) Km ATP
[5] = IC50 del19/C797S (nM) 100 μM ATP, 100 μM ATP
[6] = Km ATP, read-out: IC50 del19/C797S (nM) Km ATP
[7] = IC50 L858R/C797S (nM) 100 μM ATP, 100 μM ATP
[8] = Km ATP, read-out: IC50 L858R/C797S (nM) Km ATP
[9] = IC50 WT (nM) 100 μM ATP, 100 μM ATP
[10] = Km ATP, read-out: IC50 WT (nM) Km ATP
[11] = Km ATP, read-out: IC50 del19/T790M/C797S, Km ATP
[12] = Km ATP, read-out: IC50 L858R/T790M/C797S, Km ATP
[13] = Km ATP, read-out: IC50 del19/C797S, Km ATP
[14] = Km ATP, read-out: IC50 L858R/C797S, Km ATP
[15] = Km ATP, read-out: IC50 WT, Km ATP

SMILES | IC50 (EGFR del19/T790M/C797S; [1]) [nM] | IC50 (EGFR del19/T790M/C797S; [2]) [nM] | IC50 (EGFR L858R/T790M/C797S; [3]) [nM] | IC50 (EGFR L858R/T790M/C797S; [4]) [nM] | IC50 (EGFR del19/C797S; [5]) [nM] | IC50 (EGFR del19/C797S; [6]) [nM] | IC50 (EGFR L858R/C797S; [7]) [nM] | IC50 (EGFR L858R/C797S; [8]) [nM] | IC50 (EGFR wildtype (WT); [9]) [nM] | IC50 (EGFR wildtype (WT); [10]) [nM] | IC50 (EGFR del19/T790M/C797S; [11]) [nM] | IC50 (EGFR L858R/T790M/C797S; [12]) [nM] | IC50 (EGFR del19/C797S; [13]) [nM] | IC50 (EGFR L858R/C797S; [14]) [nM] | IC50 (EGFR wildtype (WT); [15]) [nM] | IC50 (EGFR del19/T790M/C797S; IC50 del19/T790M/C797S, 100 μM ATP) [nM] | IC50 (EGFR L858R/T790M/C797S; IC50 L858R/T790M/C797S, 100 μM ATP) [nM] | IC50 (EGFR del19/C797S; IC50 del19/C797S, 100 μM ATP) [nM] | IC50 (EGFR L858R/C797S; IC50 L858R/C797S, 100 μM ATP) [nM] | IC50 (EGFR wildtype (WT); IC50 WT, 100 μM ATP) [nM]
CC1(O)CCC(Oc2cc(Nc3ccnc(-c4cnn(S(=O)(=O)C5CC5)c4)n3)ncc2-c2ccn(C(F)F)n2)CC1 (stereo not shown) [Example 68, 4-((2-((2-(1-(Cyclopropylsulfonyl)-1H-pyrazol-4-yl)pyrimidin-4-yl)amino)-5-(1-(difluoromethyl)-1H-pyrazol-3-yl)pyridin-4-yl)oxy)-1-methylcyclohexan-1-ol] | 0.6 | 0.5 | 1.7 | 0.2 | 6.1 | 7.3 | 55.9 | 6.3 | > 10000 | 95.8 | – | – | – | – | – | – | – | – | – | –
CN(C)C(=O)C[C@H]1CC[C@@H](Nc2cc(Nc3ccnc(-c4cnn(S(=O)(=O)C5CC5)c4)n3)ncc2-c2ccn(C(F)F)n2)CC1 [Example 205, 2-((1s,4s)-4-((2-((2-(1-(Cyclopropylsulfonyl)-1H-pyrazol-4-yl)pyrimidin-4-yl)amino)-5-(1-(difluoromethyl)-1H-pyrazol-3-yl)pyridin-4-yl)amino)cyclohexyl)-N,N-dimethylacetamide] | 0.6 | 0.3 | 0.4 | 0.2 | 1 | 0.6 | 10.1 | 0.4 | 3960 | 4.4 | – | – | – | – | – | – | – | – | – | –
C[C@]1(O)CC[C@@H](Nc2cc(Nc3ccnc(-c4cnn(S(=O)(=O)C5CC5)c4)n3)ncc2-c2ccn(CC(F)F)n2)CC1 [Example 241, (1s,4s)-4-((2-((2-(1-(Cyclopropylsulfonyl)-1H-pyrazol-4-yl)pyrimidin-4-yl)amino)-5-(1-(2,2-difluoroethyl)-1H-pyrazol-3-yl)pyridin-4-yl)amino)-1-methylcyclohexan-1-ol] | 0.6 | 0.5 | 0.7 | 0.3 | 0.5 | 0.5 | – | 0.5 | 2980 | 5 | – | – | – | – | – | – | – | – | – | –
Cn1nc(-c2cnc(Nc3ccnc(-c4cnn(CC(F)F)c4)c3)nc2N[C@H]2CC[C@@](C)(O)CC2)cc1C(F)(F)F [Example 361, (1s,4s)-4-((2-((2-(1-(2,2-Difluoroethyl)-1H-pyrazol-4-yl)pyridin-4-yl)amino)-5-(1-methyl-5-(trifluoromethyl)-1H-pyrazol-3-yl)pyrimidin-4-yl)amino)-1-methylcyclohexan-1-ol] | – | – | – | – | – | – | – | – | – | – | 0.5 | 1.1 | 14.2 | 20 | 685 | – | – | – | – | –
CN[C@H]1CC[C@@H](Oc2cc(Nc3ccnc(-c4cnn(S(=O)(=O)C5CC5)c4)n3)ncc2-c2ccn(C(F)F)n2)CC1 [Example 65, 2-(1-(Cyclopropylsulfonyl)-1H-pyrazol-4-yl)-N-(5-(1-(difluoromethyl)-1H-pyrazol-3-yl)-4-(((1s,4s)-4-(methylamino)cyclohexyl)oxy)pyridin-2-yl)pyrimidin-4-amine] | 1.2 | 0.8 | 4.2 | 0.6 | 54.5 | 33.5 | 622 | 33.5 | > 10000 | 149 | – | – | – | – | – | – | – | – | – | –
CC(C)c1cc(-c2cnc(Nc3ccnc(-c4cnn(S(=O)(=O)C5CC5)c4)n3)cc2N[C@H]2CC[C@@](C)(O)CC2)on1 [Example 64, (1s,4s)-4-((2-((2-(1-(Cyclopropylsulfonyl)-1H-pyrazol-4-yl)pyrimidin-4-yl)amino)-5-(3-isopropylisoxazol-5-yl)pyridin-4-yl)amino)-1-methylcyclohexan-1-ol] | 1 | 1 | – | 0.5 | 3.3 | 2.7 | 21 | – | > 10000 | 42.9 | – | – | – | – | – | – | – | – | – | –

The next lines start with the values.

IC50 (EGFR del19/T790M/C797S; [1]) [nM] | IC50 (EGFR del19/T790M/C797S; [2]) [nM] | IC50 (EGFR L858R/T790M/C797S; [3]) [nM] | IC50 (EGFR L858R/T790M/C797S; [4]) [nM] | IC50 (EGFR del19/C797S; [5]) [nM] | IC50 (EGFR del19/C797S; [6]) [nM] | IC50 (EGFR L858R/C797S; [7]) [nM] | IC50 (EGFR L858R/C797S; [8]) [nM] | IC50 (EGFR wildtype (WT); [9]) [nM] | IC50 (EGFR wildtype (WT); [10]) [nM] | IC50 (EGFR del19/T790M/C797S; [11]) [nM] | IC50 (EGFR L858R/T790M/C797S; [12]) [nM] | IC50 (EGFR del19/C797S; [13]) [nM] | IC50 (EGFR L858R/C797S; [14]) [nM] | IC50 (EGFR wildtype (WT); [15]) [nM] | IC50 (EGFR del19/T790M/C797S; IC50 del19/T790M/C797S, 100 μM ATP) [nM] | IC50 (EGFR L858R/T790M/C797S; IC50 L858R/T790M/C797S, 100 μM ATP) [nM] | IC50 (EGFR del19/C797S; IC50 del19/C797S, 100 μM ATP) [nM] | IC50 (EGFR L858R/C797S; IC50 L858R/C797S, 100 μM ATP) [nM] | IC50 (EGFR wildtype (WT); IC50 WT, 100 μM ATP) [nM] | SMILES
0.5 | 0.3 | 0.7 | 0.3 | 2 | 2.4 | 11.5 | 3.1 | > 10000 | 37.3 | – | – | – | – | – | – | – | – | – | – | Cn1ccc(-c2cnc(Nc3ccnc(-c4cnn(S(=O)(=O)C5CC5)c4)n3)cc2N[C@H]2CC[C@](O)(C(F)F)CC2)n1 [Example 231, (1s,4s)-4-((2-((2-(1-(Cyclopropylsulfonyl)-1H-pyrazol-4-yl)pyrimidin-4-yl)amino)-5-(1-methyl-1H-pyrazol-3-yl)pyridin-4-yl)amino)-1-(difluoromethyl)cyclohexan-1-ol]
0.3 | 0.2 | 0.3 | 0.1 | 0.5 | 0.2 | 1.1 | 0.4 | 1540 | 2.8 | – | – | – | – | – | – | – | – | – | – | Cn1ccc(-c2cnc(Nc3ccnc(-c4cnn(S(=O)(=O)C5CC5)c4)n3)cc2NCC2CCC(NCCF)CC2)n1 (stereo not shown) [Example 131, N^2-(2-(1-(Cyclopropylsulfonyl)-1H-pyrazol-4-yl)pyrimidin-4-yl)-N^4-((4-((2-fluoroethyl)amino)cyclohexyl)methyl)-5-(1-methyl-1H-pyrazol-3-yl)pyridine-2,4-diamine]
– | 1.6 | – | 0.9 | – | 43.5 | – | 4.7 | – | 72 | – | – | – | – | – | – | – | – | – | – | O=S(=O)(C1CC1)n1cc(-c2nccc(Nc3cc(N[C@H]4CC[C@@H](F)CC4)c(-c4ccn(C(F)F)n4)cn3)n2)cn1 [Example 151, N^2-(2-(1-(Cyclopropylsulfonyl)-1H-pyrazol-4-yl)pyrimidin-4-yl)-5-(1-(difluoromethyl)-1H-pyrazol-3-yl)-N^4-((1s,4s)-4-fluorocyclohexyl)pyridine-2,4-diamine]
– | 0.4 | – | 0.2 | – | 3.9 | – | 1.8 | – | 33.5 | – | – | – | – | – | – | – | – | – | – | Cc1nn(CC(F)(F)F)cc1-c1nccc(Nc2cc(N[C@H]3CC[C@@](C)(O)CC3)c(-c3ccn(C(F)F)n3)cn2)n1 [Example 320, (1s,4s)-4-((5-(1-(Difluoromethyl)-1H-pyrazol-3-yl)-2-((2-(3-methyl-1-(2,2,2-trifluoroethyl)-1H-pyrazol-4-yl)pyrimidin-4-yl)amino)pyridin-4-yl)amino)-1-methylcyclohexan-1-ol]
2.8 | 1.8 | 2.3 | 0.6 | 1.1 | 0.9 | 40.4 | 2.8 | 806 | 2.9 | – | – | – | – | – | – | – | – | – | – | Cc1cc(-c2cnc(Nc3ccnc(-c4cnn(S(=O)(=O)C5CC5)c4)n3)cc2N[C@H]2CC[C@@H](C(C)(C)O)CC2)nn1C [Example 281, 2-((1s,4s)-4-((2-((2-(1-(Cyclopropylsulfonyl)-1H-pyrazol-4-yl)pyrimidin-4-yl)amino)-5-(1,5-dimethyl-1H-pyrazol-3-yl)pyridin-4-yl)amino)cyclohexyl)propan-2-ol]
– | 0.8 | – | 0.8 | – | 1320 | – | 36.6 | – | 4620 | – | – | – | – | – | – | – | – | – | – | C[C@]1(O)CC[C@@H](Nc2cc(Nc3ccnc(-c4cnn(CC(F)F)c4)n3)ncc2-n2ccc(C(F)F)n2)CC1 [Example 177, (1s,4s)-4-((2-((2-(1-(2,2-Difluoroethyl)-1H-pyrazol-4-yl)pyrimidin-4-yl)amino)-5-(3-(difluoromethyl)-1H-pyrazol-1-yl)pyridin-4-yl)amino)-1-methylcyclohexan-1-ol]
– | – | – | – | – | – | – | – | – | – | 4.2 | 2.6 | 95.1 | 117 | 261 | – | – | – | – | – | CC1(O)CCC(Nc2cc(Nc3ccnc(N4CCC(F)(F)C(O)C4)n3)ncc2-c2ccn(C(F)F)n2)CC1 (stereo not shown) [Example 350, 1-(4-((5-(1-(Difluoromethyl)-1H-pyrazol-3-yl)-4-(((1s,4s)-4-hydroxy-4-methylcyclohexyl)amino)pyridin-2-yl)amino)pyrimidin-2-yl)-4,4-difluoropiperidin-3-ol]
– | – | – | – | – | – | – | – | – | – | 0.5 | 0.2 | 134 | 14.6 | 145 | 3.5 | 0.6 | 134 | 149 | > 10000 | CC1(O)CCC(Nc2cc(Nc3ccnc(N4CCC(O)C(F)(F)C4)n3)ncc2-c2ccn(C(F)F)n2)CC1 (stereo not shown) [Example 348, 1-(4-((5-(1-(Difluoromethyl)-1H-pyrazol-3-yl)-4-(((1s,4s)-4-hydroxy-4-methylcyclohexyl)amino)pyridin-2-yl)amino)pyrimidin-2-yl)-3,3-difluoropiperidin-4-ol]
